Measurements as given in patent publication US5352608A (priority 1992, dated 1994).
Entries after “also recorded” stand apart in the source; their conditions may differ. Read-outs that look alike come from different tables or passages of the source.

Assays:
[1] = system: R. sphaeroides 2.4.1; test: Isolation of tellurium from membrane fractions (Te^IV to Te^o conversion); type: cell-based, Rhodobacter sphaeroides
Procedure: Two one-liter cultures of R. sphaeroides 2.4.1 were grown photoheterotrophically (10 W/m^2 incident light intensity) in SMM containing 0.4% succinate to a cell density of approximately 1.5 1.5×10^9 cells/ml. Prior to inoculation one flask was supplemented with 275 mg K2 TeO3 (equivalent to 138.3 mg Te^IV) to give a final medium concentration of […] K2 TeO3.
850 mg of crude membrane-metal complex was isolated. After purification and extraction with acetone:methanol and ethanol, 203 mg of a finely-divided metallic material resulted. Analysis of a 50.4 mg sample of this material identified 23.2 mg of Te^o (a minimum net purity of 46%). The minimum Te^o deposited in the one-liter culture, therefore, was 93 mg (203 mg×0.46) or 0.7333 mmole. Since the growth medium initially contained 138.3 mg of Te^IV, a minimum Te^IV to Te^o conversion of 67% was obtained.

[2] = system: tellurite reductase activity, R. sphaeroides 2.4.1; test: TeO3^2- -dependent FADH2 oxidation in subcellular fractions; type: biochemical, Rhodobacter sphaeroides; conditions: for FADH2 oxidation: 100 μg/ml K2 TeO3
[3] = system: Rhodobacter sphaeroides 2.4.1; type: cell-based
[4] = system: tellurite reductase activity, R. sphaeroides PRKA^- B^-; test: TeO3^2- -dependent FADH2 oxidation in subcellular fractions; type: biochemical, Rhodobacter sphaeroides; conditions: 100 μg/ml K2 TeO3
[5] = system: R. sphaeroides BC17; test: Intrinsic HLR to tellurite in R. sphaeroides mutants (MIC); type: cell-based, Rhodobacter sphaeroides; conditions: for MIC K2 TeO3: SMM succinate
Procedure: (§1) All Proteobacteria were grown at 30° C. with the exception of E. coli which was cultured at 37° C. on a Gyrotary shaker. Cultures of R. sphaeroides and R. gelatinosus were grown in LB, YP, or SMM containing either 0.4% succinate, 0.4% malate, or 0.4% butyrate as a carbon source. Cultures of R. capsulatus were grown in RCVB minimal medium containing 0.4% malate as a carbon source; R. rubrum was grown in SMM containing 0.4% malate, and 0.1% yeast extract. R. palustris and R. viridis were grown in SMM containing 0.4% malate, 0.1% yeast extract, and 50 μg/ml each of p-aminobenzoic acid and cyanocobalamin. […] Anaerobic-dark growth of R. sphaeroides on SMM medium containing DMSO, and photoheterotrophic growth conditions have been previously reported.
(§2) Several growth conditions were examined to determine requirements for tellurite reduction in vivo. Table 5 indicates the growth conditions tested.
(§3) ^a MIC were determined in SMM containing succinate at 30° C.
(§4) ^c Supplemented with 60 mM DMSO.

[6] = system: R. sphaeroides CFXB^-; test: as above; type: cell-based, Rhodobacter sphaeroides; conditions: for MIC K2 TeO3: SMM succinate
Procedure: as §1, §2, §3, §4

[7] = system: R. sphaeroides CYCA1; test: as above; type: cell-based, Rhodobacter sphaeroides; conditions: SMM succinate; aerobic; ( ) = resistance but no deposition of Te^0
Procedure: as §1, §2, §3, §4

[8] = system: R. sphaeroides PUFB1; test: as above; type: cell-based, Rhodobacter sphaeroides; conditions: SMM succinate; aerobic; ( ) = resistance but no deposition of Te^0
Procedure: as §1, §2, §3, §4

[9] = system: R. sphaeroides PRKA^- B^-; test: as above; type: cell-based, Rhodobacter sphaeroides; conditions: for MIC K2 TeO3: SMM succinate
Procedure: as §1, §2, §3, §4

[10] = system: R. sphaeroides 2.4.1ΔS; test: as above; type: cell-based, Rhodobacter sphaeroides; conditions: for MIC K2 TeO3: SMM succinate
Procedure: as §1, §2, §3, §4

[11] = system: R. sphaeroides PRKA^-; test: as above; type: cell-based, Rhodobacter sphaeroides; conditions: for MIC K2 TeO3: SMM succinate; for Increase in TeO3^2- sensitivity: prkA deletion
Procedure: as §1, §2, §3, §4

[12] = system: R. sphaeroides CFXA^-; test: as above; type: cell-based, Rhodobacter sphaeroides; conditions: for MIC K2 TeO3: SMM succinate; for Increase in TeO3^2- sensitivity: cfxA deletion
Procedure: as §1, §2, §3, §4

[13] = system: R. sphaeroides MM1006; test: as above; type: cell-based, Rhodobacter sphaeroides; conditions: SMM succinate; aerobic; ( ) = resistance but no deposition of Te^0
Procedure: as §1, §2, §3, §4

[14] = system: Rhodopseudomonas palustris 1e5; test: Intrinsic HLR to TeO3^2- (MIC); type: cell-based
[15] = system: Rhodobacter sphaeroides RS2; test: Intrinsic HLR to TeO3^2- (MIC); type: cell-based; conditions: for MIC of RS2 lower than strain 2.4.1, 2.4.7 or WS8: approximately
[16] = system: Rhodobacter sphaeroides 2.4.7; test: Intrinsic HLR to TeO3^2- (MIC); type: cell-based
[17] = system: tellurite reductase activity, R. sphaeroides PUHA1; test: TeO3^2- -dependent FADH2 oxidation in subcellular fractions; type: biochemical, Rhodobacter sphaeroides; conditions: 100 μg/ml K2 TeO3
[18] = system: Rhodobacter capsulatus B10; test: Intrinsic HLR to TeO3^2- (MIC); type: cell-based
[19] = system: R. sphaeroides 2.4.1; type: cell-based, Rhodobacter sphaeroides
[20] = system: Rhodocyclus gelatinosus str-1; test: Intrinsic HLR to TeO3^2- (MIC); type: cell-based
[21] = system: Proteobacteria; test: Intrinsic HLR to tellurite, comparison across strains; type: cell-based; conditions: aerobic vs photosynthetic; exception R. gelatinosus
[22] = system: R. sphaeroides MM1004; type: cell-based, Rhodobacter sphaeroides; conditions: SMM succinate
Procedure: as §1, §2, §3, §4

[23] = photosynthetic and anaerobic-dark/DMSO, at least

**Q.** Which “Te^IV to Te^o conversion” value ([1]; 250 μg/ml K2 TeO3, photoheterotrophic 10 W/m^2, minimum) does the source give for `O=[Te]([O-])[O-].[K+].[K+]` [K2 TeO3] here?
**A.** ≥ 67%

**Q.** What about the “Localization of deposit after subcellular fractionation” value ([1]; discontinuous sucrose gradient) of the same compound?
**A.** localized to the cytoplasmic membrane

**Q.** And the FADH2 oxidation ([2]; cytoplasm)?
**A.** 60 nmol/min/mg

**Q.** And the FADH2 oxidation ([2]; membrane)?
**A.** 300 nmol/min/mg

**Q.** What about the FADH2 oxidation ([2]; periplasm) of the same compound?
**A.** 1 nmol/min/mg

**Q.** And the “Reductase activity in words” value ([2]; periplasmic and cytoplasmic fractions of all strains)?
**A.** Negligible reductase activity

**Q.** And the “MIC Low-PO4^3- Medium” value [3]?
**A.** 600 µg/mL

**Q.** What about the “MIC Standard Medium” value [3] of the same compound?
**A.** 600 µg/mL

**Q.** What about the “MIC ratio 10 W/m^2 vs 3 W/m^2” value [3] of the same compound?
**A.** at least two-fold

**Q.** And the “MIC ratio aerobically- vs. photosynthetically-grown” value [3]?
**A.** two- to three-fold

**Q.** What about the “MIC relative to E. coli” value [3] of the same compound?
**A.** at least 80 times

**Q.** And the “Reduction in TeO3^2- resistance with supplement” value [3]?
**A.** thirty- to forty-fold

**Q.** What about the Relative toxicity [3] of the same compound?
**A.** SeO4^2- >TeO4^2- >TeO3^2- >SeO3^2- >Rh2 O3.5H2 O

**Q.** What about the Resistance in words [3] of the same compound?
**A.** intrinsic high level resistance

**Q.** What about the FADH2 oxidation ([4]; membrane) of the same compound?
**A.** 200 nmol/min/mg

**Q.** What about the FADH2 oxidation ([4]; periplasm) of the same compound?
**A.** 3 nmol/min/mg

**Q.** What about the “MIC K2 TeO3” value ([5]; aerobic) of the same compound?
**A.** < 10 µg/mL

**Q.** What about the “MIC K2 TeO3” value ([5]; anaerobic-dark, 60 mM DMSO) of the same compound?
**A.** < 10 µg/mL

**Q.** And the “Concentration to which strain is sensitive” value ([5]; all growth conditions)?
**A.** 10 µg/mL

**Q.** What about the “MIC K2 TeO3” value ([6]; aerobic) of the same compound?
**A.** 750 µg/mL

**Q.** And the “MIC K2 TeO3” value ([6]; anaerobic-dark, 60 mM DMSO)?
**A.** 150 µg/mL

**Q.** What about the “MIC K2 TeO3” value ([6]; photosynthetic 10 W/m^2) of the same compound?
**A.** 650 µg/mL

**Q.** What about the “Diminution of HLR to TeO3^2-” value ([6]; single mutation in cfxB) of the same compound?
**A.** 10-20%

**Q.** What about the “MIC K2 TeO3” value [7] of the same compound?
**A.** 400 µg/mL

**Q.** And the “MIC K2 TeO3” value [8]?
**A.** 400 µg/mL

**Q.** What about the “MIC K2 TeO3” value ([9]; aerobic, ( ) = resistance but no deposition of Te^0) of the same compound?
**A.** 150 µg/mL

**Q.** What about the “MIC K2 TeO3” value ([9]; anaerobic-dark, 60 mM DMSO) of the same compound?
**A.** < 10 µg/mL

**Q.** And the “Concentration to which strain is resistant” value ([9]; aerobic)?
**A.** < 200 µg/mL

**Q.** And the “Effect of 42-kb plasmid deletion on HLR” value [10]?
**A.** did not diminish HLR to TeO3^2-

**Q.** What about the “MIC K2 TeO3” value ([10]; aerobic) of the same compound?
**A.** 850 µg/mL

**Q.** What about the “MIC K2 TeO3” value ([10]; anaerobic-dark, 60 mM DMSO) of the same compound?
**A.** 150 µg/mL

**Q.** And the “MIC K2 TeO3” value ([10]; photosynthetic 10 W/m^2)?
**A.** 600 µg/mL

**Q.** What about the “MIC K2 TeO3” value ([11]; aerobic) of the same compound?
**A.** 350 µg/mL

**Q.** And the “MIC K2 TeO3” value ([11]; anaerobic-dark, 60 mM DMSO)?
**A.** 60 µg/mL

**Q.** What about the “MIC K2 TeO3” value ([11]; photosynthetic 10 W/m^2) of the same compound?
**A.** 100 µg/mL

**Q.** And the “Increase in TeO3^2- sensitivity” value ([11]; aerobic)?
**A.** two-fold

**Q.** And the “Increase in TeO3^2- sensitivity” value [11, 23]?
**A.** at least three- to five-fold

**Q.** And the “MIC K2 TeO3” value ([12]; aerobic)?
**A.** 400 µg/mL

**Q.** And the “MIC K2 TeO3” value ([12]; anaerobic-dark, 60 mM DMSO)?
**A.** 50 µg/mL

**Q.** What about the “MIC K2 TeO3” value ([12]; photosynthetic 10 W/m^2) of the same compound?
**A.** 100 µg/mL

**Q.** And the “Increase in TeO3^2- sensitivity” value ([12]; aerobic)?
**A.** two-fold

**Q.** And the “Increase in TeO3^2- sensitivity” value [12, 23]?
**A.** at least three- to five-fold

**Q.** And the “MIC K2 TeO3” value [13]?
**A.** 400 µg/mL

**Q.** What about the “MIC K2 TeO3” value ([14]; aerobic, minimal medium) of the same compound?
**A.** 200 µg/mL

**Q.** What about the “MIC K2 TeO3” value ([14]; photosynthetic, 10 W/m^2) of the same compound?
**A.** 100 µg/mL

**Q.** What about the “MIC K2 TeO3” value ([15]; aerobic, minimal medium) of the same compound?
**A.** 400 µg/mL

**Q.** And the “MIC of RS2 lower than strain 2.4.1, 2.4.7 or WS8” value [15]?
**A.** approximately two-to three fold

**Q.** And the “MIC of RS2 lower than strain 2.4.1, 2.4.7 or WS8” value ([15]; listed as tellurite)?
**A.** approximately two- to three-fold

**Q.** And the “MIC K2 TeO3” value ([15]; photosynthetic, 10 W/m^2)?
**A.** 250 µg/mL

**Q.** And the “MIC K2 TeO3” value ([16]; aerobic, minimal medium)?
**A.** 800 µg/mL

**Q.** And the “MIC K2 TeO3” value ([16]; photosynthetic, 10 W/m^2)?
**A.** 500 µg/mL

**Q.** What about the FADH2 oxidation ([17]; cytoplasm) of the same compound?
**A.** 37 nmol/min/mg

**Q.** And the FADH2 oxidation ([17]; membrane)?
**A.** 28 nmol/min/mg

**Q.** And the FADH2 oxidation ([17]; periplasm)?
**A.** 3 nmol/min/mg

**Q.** What about the Resistance in words ([18]; aerobic) of the same compound?
**A.** intrinsic high level resistance

**Q.** What about the “MIC K2 TeO3” value ([18]; aerobic, minimal medium) of the same compound?
**A.** 800 µg/mL

**Q.** What about the “MIC relative to E. coli” value ([18]; aerobic, tellurite) of the same compound?
**A.** at least 80 times

**Q.** And the “MIC K2 TeO3” value ([18]; photosynthetic, 10 W/m^2)?
**A.** 500 µg/mL

**Q.** What about the “Appearance of cells / metal deposit” value [19] of the same compound?
**A.** intracellular accumulation of a dense metal deposit; also recorded: produced a black deposit which did not diffuse into the medium

**Q.** What about the Gas evolution [19] of the same compound?
**A.** +++ +

**Q.** And the “Gas evolution in words” value [19]?
**A.** Copious gas evolution

**Q.** What about the “Resistance to tellurite in words” value [20] of the same compound?
**A.** low resistance

**Q.** What about the “MIC K2 TeO3” value ([20]; aerobic, minimal medium) of the same compound?
**A.** 5 µg/mL

**Q.** What about the “MIC K2 TeO3” value ([20]; photosynthetic, 10 W/m^2) of the same compound?
**A.** 10 µg/mL

**Q.** And the “MIC increase, cells grown aerobically” value [21]?
**A.** approximately 50%

**Q.** What about the “MIC K2 TeO3” value ([22]; aerobic) of the same compound?
**A.** 800 µg/mL

**Q.** What about the “MIC K2 TeO3” value ([22]; photosynthetic 10 W/m^2) of the same compound?
**A.** 550 µg/mL
